From PubChem BioAssay (NCI)
Values after ≈ are worked out from the molar mass of the structure shown.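 The compound was tested at five concentrations on cells cultured in 96-well plates, with a 48-hour exposure period. GI50: concentration for 50% inhibition of growth. TGI denotes the concentration required for complete inhibition of growth.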

Legend:
Assay in all cases: growth of human tumour cells (NCI), 48 h
[1] = system: DU-145 prostate
[2] = system: K-562 leukemia
[3] = system: NCI-H23 lung
[4] = system: NCI/ADR-RES ovarian
[5] = system: MALME-3M melanoma
[6] = system: OVCAR-3 ovarian
[7] = system: HOP-62 NSCLC
[8] = system: HT29 colon
[9] = system: U251 CNS
[10] = system: SK-MEL-2 melanoma

SMILES	GI50 [1]	TGI [1]	GI50 [2]	TGI [2]	GI50 [3]	TGI [3]	GI50 [4]	TGI [4]	GI50 [5]	TGI [5]	GI50 [6]	TGI [6]	TGI [7]	TGI [8]	TGI [9]	TGI [10]	GI50 [7]	GI50 [8]	GI50 [9]
c1ccc(-c2c(-c3ccccc3)[n+](Cc3ccc4ccccc4c3)c(-c3ccc(-c4nc5ccccc5s4)cc3)n2Cc2ccc3ccccc3c2)cc1	0.262 µM	1.03 µM	0.0945 µM	3.79 µM	0.0933 µM	0.759 µM	1.07 µM	2.61 µM	0.0536 µM	0.204 µM	0.0814 µM	0.626 µM	–	–	–	–	–	–	–
COC(=O)C(Cc1cn(C(C)n2cc(CC(NC(C)=O)C(=O)OC)c3ccccc32)c2ccccc12)NC(C)=O (configuration not stated)	–	> 100 µM	–	–	–	> 100 µM	–	–	–	> 100 µM	–	> 100 µM	> 100 µM	> 100 µM	> 100 µM	> 100 µM	–	–	–
O=C1NN(C2=NNC3(C(=O)N2)c2ccccc2-c2ccccc23)C(c2ccccc2)=N/C1=C/c1ccc(Cl)cc1	89.1 µg/mL	> 150 µg/mL	50.4 µg/mL	> 150 µg/mL	34.9 µg/mL	> 150 µg/mL	53.2 µg/mL	> 150 µg/mL	89.9 µg/mL	> 150 µg/mL	29.5 µg/mL	69.3 µg/mL	> 150 µg/mL	> 150 µg/mL	143 µg/mL	–	49.1 µg/mL (≈ 90 µM)	89.6 µg/mL (≈ 164 µM)	41.3 µg/mL (≈ 75.8 µM)
O=C(O)c1nc2ccc(C(F)(F)F)cc2[nH]c1=O	–	> 100 µM	–	> 100 µM	–	> 100 µM	–	> 100 µM	–	> 100 µM	–	> 100 µM	> 100 µM	> 100 µM	> 100 µM	> 100 µM	–	–	–
CN(/N=C1\C(=O)Nc2ccccc21)c1ccccc1	–	> 100 µM	–	> 100 µM	–	> 100 µM	–	–	–	> 100 µM	–	> 100 µM	> 100 µM	> 100 µM	> 100 µM	> 100 µM	–	–	–
CN(C)CCNC(=O)c1cccc2c1Nc1ccccc1S2	–	–	–	36.2 µM	–	28.5 µM	–	32.6 µM	–	29.2 µM	–	28 µM	33.4 µM	25 µM	26.9 µM	30.3 µM	–	–	–
CO/N=C1\CC(NC(=O)C(F)(F)F)c2ccsc21 (configuration not stated)	–	> 100 µM	–	> 100 µM	–	> 100 µM	–	> 100 µM	–	> 100 µM	–	> 100 µM	> 100 µM	> 100 µM	> 100 µM	> 100 µM	–	–	–
CC(=O)NNc1nc(C)c(C(=O)NNC(=O)C(=O)Nc2ccc([N+](=O)[O-])cc2[N+](=O)[O-])s1	–	–	–	> 100 µM	–	> 100 µM	–	–	–	–	–	–	> 100 µM	> 100 µM	> 100 µM	> 100 µM	–	–	–
O=c1oc2ccccc2c(O)c1Cc1ccc(Cc2c(O)c3ccccc3oc2=O)cc1	–	> 100 µM	–	> 100 µM	–	> 100 µM	–	> 100 µM	–	> 100 µM	–	> 100 µM	> 100 µM	> 100 µM	> 100 µM	> 100 µM	–	–	–
